Data set [1] has as its system noncancerous rat kidney epithelial cells (NRK). Details: method as in earlier work. The note with it: previously reported, ref 40 (Slimestad et al., 2022); cited from earlier work.
Data set [2] has as its system human leukemia cells (MOLM-13). Also noted: method as in earlier work. The note with it: MOLM-13 cells; previously reported; ref 40 (Slimestad et al., 2022); cited from earlier work.
A short description of data set [3]: DPPH radical scavenging assay. Conditions: 6 min incubation at room temperature, absorbance at 515 nm, triplicate. Format: biochemical. Here is the method: A DPPH radical scavenging assay was conducted following a previously published protocol, as detailed in the Supporting Information.
Antioxidant Activity Tests. A DPPH radical scavenging assay was used according to a previously
published protocol.13 Serial dilutions of compounds (prepared in methanol) were incubated with
DPPH solution for 6 min at room temperature. The reduction in absorbance was measured with a
HITACHI U-2000 spectrophotometer (Hitachi Ltd., Tokyo, Japan) at 515 nm. […]

Data set [4] deals with melanoma (A2058). As to the kind of experiment: In vitro cytostatic effect, Alamar Blue viability assay, A2058. Format: cell-based, human. Conditions: A2058 cells, overnight treatment 0.08-100 µM, then 72 h culture. Here is the method:
(§1) The cytostatic effects of the compounds were evaluated in vitro on various cancer cells and noncancerous Vero E6 cells using the Alamar Blue viability assay, as detailed in the Supporting Information.
(§2) The cytostatic effects of MDiCQAs and FMGls were evaluated in vitro using the Alamar Blue viability assay on five human cancer cell lines: colorectal carcinoma (HT-29), glioma (U87), hepatocellular carcinoma (HepG2), promyelocytic leukemia (HL-60), and melanoma (A2058). They were also tested on nontumorous Vero E6 cells, kidney epithelial cells from an African green monkey, to evaluate the selectivity of the compounds. […] The two effective MDiCQAs (4 and 9) share a common structural feature: their central quinic acid core is substituted with caffeoyl moieties at the C-1 and C-5 positions and a malonyl group at the C-3 position. In contrast, the ineffective compound 7 has caffeoyl moieties at the same positions, but its malonyl group is attached to the C-4 position instead of C-3. Similarly, in the other ineffective MDiCQAs (5 and 6), the malonyl unit is also located at the C-4 position, while their caffeoyl groups are positioned at C-3 and C-5. […] The results also indicate a high degree of isomer-specificity in the cytostatic activity of MDiCQAs. […] In particular, the inhibition of Vero E6 cells by the MDiCQAs (4 and 9) can be considered as a strong effect, and that of the FMGl (3) as a weaker one, with IC50 values below 10 μM and around 40 μM, respectively. […]
(§3) Determination of the In Vitro Cytostatic Effects of Compounds. In vitro, the cytostatic effect of the compounds was determined on various human tumor- and non-human primate Vero E6 cells using Alamar Blue end-point viability assay. Cells were cultured in DMEM medium supplemented with 10% FBS, 2 mM L-glutamine, 50 IU/mL penicillin/50 µg/mL streptomycin antibiotic cocktail, 1 mM sodium pyruvate and 1% non-essential amino acid mixture at 37 °C in a humidified atmosphere with 5% CO2. At the confluent state, cells were plated into 96-well tissue culture plates with the initial cell number of 5.0×10^3 cells/well. Cells were treated with the compounds after 24 hours in a serum-free medium containing 1.0% (v/v) DMSO at 0.08 -100 µM concentration. Control cells were treated with serum-free medium or DMSO (c=1.0%, v/v ) containing serum-free medium. After overnight incubation, cells were washed twice with a serum-free medium; then, they were cultured for another 72 hours in the complete culturing medium at 37 °C. Following that, 22.5 µL Alamar Blue (resazurin sodium salt, Merck) solution (0.15 mg/mL in PBS) was added to each well and after 4 hrs of incubation, the fluorescence was measured at λEx = 530/30 and λEM = 610/10 nm using a Synergy H4 multi-mode microplate reader (BioTek). All measurements were performed in quadruplets, and the mean IC50 values and ± SEM were represented.
A general note: Alamar Blue is a resazurin reagent that responds to reducing activity.

Data set [5] relates to Vero E6 cells. As to the kind of experiment: In vitro cytostatic effect, Alamar Blue viability assay, Vero E6. Format: cell-based, African green monkey. The note with it: then 72 h culture. The procedure: as §1, §2, §3
Data set [6] concerns colorectal carcinoma (HT-29). As to the kind of experiment: In vitro cytostatic effect, Alamar Blue viability assay, HT-29. In kind it is cell-based, human. Conditions: HT-29 cells, overnight treatment 0.08-100 µM, then 72 h culture. The procedure: as §1, §2, §3
The subject of data set [7] is hepatocellular carcinoma (HepG2). As to the kind of experiment: In vitro cytostatic effect, Alamar Blue viability assay, HepG2. In kind it is cell-based, human. Conditions: HepG2 cells, overnight treatment 0.08-100 µM, then 72 h culture. The procedure: as §1, §2, §3
Data set [8] deals with glioma (U87). The data set can be described thus: In vitro cytostatic effect, Alamar Blue viability assay, U87. Conditions: U87 cells, overnight treatment 0.08-100 µM, then 72 h culture. In kind it is cell-based, human. The procedure:
as §1, §2, §3

Data set [9] has as its system promyelocytic leukemia (HL-60). The data set can be described thus: In vitro cytostatic effect, Alamar Blue viability assay, HL-60. Format: cell-based, human. The note with it: HL-60 cells, overnight treatment 0.08-100 µM, then 72 h culture. Here is the method:
as §1, §2
as §3, with “All measurements were performed in quadruplets, and the mean IC50 values and ± SEM were represented.” left out

The mark [10] stands for this setting: overnight treatment 0.08-100 µM.
The mark [11] stands for this setting: Chlorocebus sabaeus, Vero C1008, 72 h, overnight treatment 0.08-100 µM.

As for 1,3-dicaffeoyl-5-malonyl-δ-quinide, the in vitro cytotoxicity result in data set [1] and in [2] was “nonselective in vitro cytotoxicity” throughout.
For the compound `O=C(O)CC(=O)OC[C@H]1O[C@@H](Oc2c(-c3ccc(O)c(O)c3)oc3cc(O)cc(O)c3c2=O)[C@H](O)[C@@H](O)[C@@H]1O` [Compound 1, quercetin-3-O-(6″-O-malonyl)-β-D-glucoside], the half-inhibitory concentration (IC50) in [3] turned out to be 22.5 ± 0.6 µM.
In [3], `O=C(O)CC(=O)OC[C@H]1O[C@@H](Oc2cc(O)c3c(=O)cc(-c4ccc(O)c(O)c4)oc3c2)[C@H](O)[C@@H](O)[C@@H]1O` [Compound 2, luteolin-7-O-(6″-O-malonyl)-β-D-glucoside] registered an IC50 of 7.8 ± 0.4 µM.
With `O=C(O)CC(=O)OC[C@H]1O[C@@H](Oc2c(-c3ccc(O)cc3)oc3cc(O)cc(O)c3c2=O)[C@H](O)[C@@H](O)[C@@H]1O` [Compound 3, kaempferol-3-O-(6″-O-malonyl)-β-D-glucoside], the half-maximal inhibitory concentration (IC50) in data set [4] was 21 ± 3 µM; in [5] (setting [10]), 39.8 ± 2 µM; in data set [6], > 100 µM; in data set [3], 233.9 ± 0.9 µM; in [7], 27.5 ± 3.4 µM; in data set [8], 86.3 ± 9.4 µM. The IC50 in [9] was 51.4 ± 6.7 µM.
For `O=C(O)CC(=O)OC1CC(OC(=O)C=Cc2ccc(O)c(O)c2)(C(=O)O)CC(OC(=O)C=Cc2ccc(O)c(O)c2)C1O` (stereo not drawn) [Compound 4, 1,5-Dicaffeoyl-3-malonylquinic Acid], the concentration for half-maximal inhibition (IC50) in [4] (Homo sapiens) is 13.5 ± 1.5 µM; in data set [5] (setting [11]), < 10 µM; in data set [5] (setting [10]) it was 9.9 ± 1.4 µM; in data set [6] (Homo sapiens), > 100 µM; in data set [7] (Homo sapiens), 25.6 ± 2.3 µM; in data set [8] (Homo sapiens, U-87 MG), > 100 µM. In addition, the IC50 in data set [9] (Homo sapiens) stood at 29.7 ± 4.6 µM.
For the compound `O=C(O)CC(=O)OC[C@H]1O[C@@H](Oc2cc(O)c3c(=O)cc(-c4ccc(O)c(O)c4)oc3c2)[C@H](OC(=O)CC(=O)O)[C@@H](O)[C@@H]1O` [Compound 8, Luteolin-7-O-(2″,6″-di-O-malonyl)-β-D-glucoside], the IC50 is > 100 µM in data set [4] (Homo sapiens); > 100 µM in data set [5] (setting [11]); > 100 µM in data set [6] (Homo sapiens); 14.8 ± 0.6 µM in data set [3]; > 100 µM in data set [7] (Homo sapiens); > 100 µM in [8] (Homo sapiens, U-87 MG).
On to `O=C(O)CC(=O)OC1CC(OC(=O)C=Cc2ccc(O)c(O)c2)(C(=O)O)CC(OC(=O)C=Cc2ccc(O)c(O)c2)C1OC(=O)CC(=O)O` (stereo not drawn) [Compound 9, 1,5-Dicaffeoyl-3,4-dimalonylquinic Acid], for which the IC50 is 11.9 ± 2.2 µM in data set [4] (Homo sapiens); < 10 µM in data set [5] (setting [11]); 9.5 ± 3.1 µM in [5] (setting [10]); 47.9 ± 2.3 µM in [6] (Homo sapiens); 13.6 ± 0.4 µM in data set [3]; > 100 µM in data set [7] (Homo sapiens). Besides, the IC50 in [8] (Homo sapiens, U-87 MG) was 48.5 ± 4.6 µM; in [9] (Homo sapiens) it was > 100 µM.
`COc1cccc2c1C(=O)c1c(O)c3c(c(O)c1C2=O)C[C@@](O)(C(C)=O)C[C@@H]3O[C@H]1C[C@H](N)[C@H](O)[C@H](C)O1` [Daunomycin, reference compound]: the half-inhibitory concentration (IC50) in data set [4] (Homo sapiens) stood at 0.2 ± 0.01 µM; in [5] (Chlorocebus sabaeus, Vero C1008, overnight treatment 0.08-100 µM) it was 1.7 ± 0.5 µM; in data set [6] (Homo sapiens), 0.9 ± 0.1 µM; in data set [7] (Homo sapiens) it was 0.54 ± 0.15 µM; in data set [8] (Homo sapiens, U-87 MG), 0.6 ± 0.05 µM; in data set [9] (Homo sapiens) it was 0.16 ± 0.03 µM.
Regarding `Cc1c(C)c2c(c(C)c1O)CCC(C)(C(=O)O)O2` (stereo not drawn) [Trolox, reference compound], half-maximal inhibition in [3] (IC50) required 18.4 ± 0.1 µM.

What is called IC50 is the concentration that gives 50% inhibition.

The values above are taken from PMC12489727, “Malonyl-Caffeoylquinic Acids and Malonyl-Flavonoid-Glucosides from Three Edible Apiaceae Plants Anthriscus Cerefolium, Anthriscus Sylvestris, and Chaerophyllum Bulbosum” (ACS Omega, 2025).
